We go through 23 compounds from US10954232B2, “Pyrazole derivative as ALK5 inhibitor and uses thereof” (HANMI PHARMACEUTICAL CO., LTD., priority 2016, dated 2021).

The assay has as its target T1, ALK5 kinase (Homo sapiens, UniProt P36897).
T1 construct: GST; purchased Thermo Fisher Scientific Solutions
T1 sequence (P36897 34-503): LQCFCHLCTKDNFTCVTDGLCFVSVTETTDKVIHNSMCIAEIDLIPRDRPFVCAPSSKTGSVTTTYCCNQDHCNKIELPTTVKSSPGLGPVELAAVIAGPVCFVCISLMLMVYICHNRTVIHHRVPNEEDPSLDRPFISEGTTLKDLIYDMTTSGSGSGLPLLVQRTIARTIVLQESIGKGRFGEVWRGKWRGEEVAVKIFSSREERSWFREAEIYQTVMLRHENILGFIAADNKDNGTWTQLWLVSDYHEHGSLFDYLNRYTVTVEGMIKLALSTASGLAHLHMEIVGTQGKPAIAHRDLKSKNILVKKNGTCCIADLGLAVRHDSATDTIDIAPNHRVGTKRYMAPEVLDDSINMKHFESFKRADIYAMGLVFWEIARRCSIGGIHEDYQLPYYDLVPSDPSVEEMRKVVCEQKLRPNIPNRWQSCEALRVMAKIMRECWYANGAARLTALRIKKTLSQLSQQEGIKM
Nature of the assay: Activity inhibition test on ALK5 enzyme (LanthaScreen Eu binding kinase assay). Particulars: kinase tracer 178, 60 minutes at room temperature. The method, then:
For each of the compounds obtained in Examples 1 to 227, inhibitory activity against ALK5 kinase was measured.
For this, a LanthaScreen Eu binding kinase assay method was used, and ALK5 kinase, a kinase buffer, a kinase tracer 178, and a LanthaScreen Eu-GST binding antibody were all purchased from Thermo Fisher Scientific Solutions. Each of the compounds was made into a 10 mM DMSO solution, and diluted by 1/10 to a concentration of 1 μM to 0.0001 μM with an aqueous solution containing 4% DMSO. The test was performed in 384 well plates (well polystyrene low volume round-bottomed plates). First, 5 μL of the diluted compound solution was added, then 5 μL of the kinase/antibody mixture solution was introduced thereto, and 5 μL of the tracer was introduced thereto. Herein, these were added to each well so that the final kinase concentration became 5 nM, the final Eu-GST binding antibody concentration 2 nM, and the kinase tracer 178 concentration 10 nM, and the result was reacted in a stirrer for 60 minutes at room temperature. Then a fluorescence value was measured using a fluorescence meter (molecular device) ([…], 665 nm emission filter). Herein, as for the degree of compound activity to inhibit the kinase reaction, a phosphorylate rate was calculated from 0% to 100% with respect to a control group according to the protocol included in the kit, and a 50% inhibitory concentration (IC50) value was calculated by obtaining the x-axis concentration in the region where 50% activity was inhibited.
Background: TR-FRET usually uses a lanthanide donor and a delayed reading to cut background.
In general, IC50 refers to the concentration needed to halve the response being measured. A low value points to inhibition by little substance. The compound `Cc1cccc(-n2nc(C(=O)Nc3ccc(S(=O)(=O)N(C)C)cc3)cc2-c2ccc3ncsc3c2)n1` [Example 52, 5-(benzo[d]thiazol-6-yl)-N-(4-(N,N-dimethylsulfamoyl)phenyl)-1-(6-methylpyridin-2-yl)-1H-pyrazole-3-carboxyamide] returned an IC50 of 2.5 nM.
In the case of `Cc1cccc(-n2nc(C(=O)Nc3cccc(NS(C)(=O)=O)c3)cc2-c2ccc3ncsc3c2)n1` [Example 53, 5-(benzo[d]thiazol-6-yl)-1-(6-methylpyridin-2-yl)-N-(3-(methylsulfonamido)phenyl)-1H-pyrazole-3-carboxyamide] it was 2.4 nM.
In the case of `Cc1cccc(-n2nc(C(=O)Nc3cccc(NS(=O)(=O)C4CC4)c3)cc2-c2ccc3ncsc3c2)n1` [Example 54, 5-(benzo[d]thiazol-6-yl)-N-(3-(cyclopropanesulfonamido)phenyl)-1-(6-methylpyridin-2-yl)-1H-pyrazole-3-carboxyamide], the half-inhibitory concentration (IC50) came out at 2 nM.
In the case of `Cc1cccc(-n2nc(C(=O)Nc3ccc(NS(=O)(=O)C4CC4)cc3)cc2-c2ccc3ncsc3c2)n1` [Example 55, 5-(benzo[d]thiazol-6-yl)-N-(4-(cyclopropanesulfonamido)phenyl)-1-(6-methylpyridin-2-yl)-1H-pyrazole-3-carboxyamide] it was 4.2 nM; in that of `Cc1cccc(-n2nc(C(=O)Nc3ccc(S(=O)(=O)O)cc3)cc2-c2ccc3ncsc3c2)n1` [Example 56, 4-(5-(benzo[d]thiazol-6-yl)-1-(6-methylpyridin-2-yl)-1H-pyrazole-3-carboxyamido)benzenesulfonic acid], 2.4 nM; in that of `Cc1cccc(-n2nc(C(=O)Nc3ccc(S(=O)(=O)C(F)(F)F)cc3)cc2-c2ccc3ncsc3c2)n1` [Example 57, 5-(benzo[d]thiazol-6-yl)-1-(6-methylpyridin-2-yl)-N-(4-((trifluoromethyl)sulfonyl)phenyl)-1H-pyrazole-3-carboxyamide], 45 nM.
As for `Cc1cccc(-n2nc(C(=O)Nc3ccc(S(=O)(=O)NCC(F)(F)F)cc3)cc2-c2ccc3ncsc3c2)n1` [Example 58, 5-(benzo[d]thiazol-6-yl)-1-(6-methylpyridin-2-yl)-N-(4-(N-(2,2,2-trifluoroethyl)sulfamoyl)phenyl)-1H-pyrazole-3-carboxyamide], the IC50 turned out to be 5.6 nM.
In the case of `Cc1cccc(-n2nc(C(=O)Nc3ccc(CS(C)(=O)=O)cc3)cc2-c2ccc3ncsc3c2)n1` [Example 59, 5-(benzo[d]thiazol-6-yl)-1-(6-methylpyridin-2-yl)-N-(4-((methylsulfonyl)methyl)phenyl)-1H-pyrazole-3-carboxyamide] it was 20 nM.
Under `Cc1cccc(-n2nc(C(=O)Nc3cccc(CS(N)(=O)=O)c3)cc2-c2ccc3ncsc3c2)n1` [Example 60, 5-(benzo[d]thiazol-6-yl)-1-(6-methylpyridin-2-yl)-N-(3-(sulfamoylmethyl)phenyl)-1H-pyrazole-3-carboxyamide] stands 13 nM; under `Cc1cccc(-n2nc(C(=O)Nc3ccc(CS(N)(=O)=O)cc3)cc2-c2ccc3ncsc3c2)n1` [Example 61, 5-(benzo[d]thiazol-6-yl)-1-(6-methylpyridin-2-yl)-N-(4-(sulfamoylmethyl)phenyl)-1H-pyrazole-3-carboxyamide], 10 to 100 nM.
`Cc1cccc(-n2nc(C(=O)Nc3ccc(F)c(CS(N)(=O)=O)c3)cc2-c2ccc3ncsc3c2)n1` [Example 62, 5-(benzo[d]thiazol-6-yl)-N-(4-fluoro-3-(sulfamoylmethyl)phenyl)-1-(6-methylpyridin-2-yl)-1H-pyrazole-3-carboxyamide] returned an IC50 of 16 nM.
In the case of `Cc1cccc(-n2nc(C(=O)Nc3ccc(NC4CCS(=O)(=O)C4)cc3)cc2-c2ccc3ncsc3c2)n1` (centres unmarked) [Example 63, 5-(benzo[d]thiazol-6-yl)-N-(4-((1,1-dioxidotetrahydrothiophen-3-yl)amino)phenyl)-1-(6-methylpyridin-2-yl)-1H-pyrazole-3-carboxyamide] it was 3.7 nM.
Under `Cc1cccc(-n2nc(C(=O)Nc3ccncc3)cc2-c2ccc3ncsc3c2)n1` [Example 64, 5-(benzo[d]thiazol-6-yl)-1-(6-methylpyridin-2-yl)-N-(pyridin-4-yl)-1H-pyrazole-3-carboxyamide] stands less than 10 nM.
In the case of `COc1ccc(NC(=O)c2cc(-c3ccc4ncsc4c3)n(-c3cccc(C)n3)n2)cn1` [Example 65, 5-(benzo[d]thiazol-6-yl)-N-(6-methoxypyridin-3-yl)-1-(6-methylpyridin-2-yl)-1H-pyrazole-3-carboxyamide] it was less than 10 nM; in that of `COc1cc(NC(=O)c2cc(-c3ccc4ncsc4c3)n(-c3cccc(C)n3)n2)ccn1` [Example 66, 5-(benzo[d]thiazol-6-yl)-N-(2-methoxypyridin-4-yl)-1-(6-methylpyridin-2-yl)-1H-pyrazole-3-carboxyamide], 3.2 nM; in that of `CSc1ccc(NC(=O)c2cc(-c3ccc4ncsc4c3)n(-c3cccc(C)n3)n2)cn1` [Example 67, 5-(benzo[d]thiazol-6-yl)-N-(6-(methylthio)pyridin-3-yl)-1-(6-methylpyridin-2-yl)-1H-pyrazole-3-carboxyamide], 9.6 nM.
`Cc1cccc(-n2nc(C(=O)Nc3cccc(S(C)(=O)=O)n3)cc2-c2ccc3ncsc3c2)n1` [Example 68, 5-(benzo[d]thiazol-6-yl)-1-(6-methylpyridin-2-yl)-N-(6-(methylsulfonyl)pyridin-2-yl)-1H-pyrazole-3-carboxyamide] gave an IC50 of 65 nM.
Under `Cc1cccc(-n2nc(C(=O)Nc3ccc(S(C)(=O)=O)nc3)cc2-c2ccc3ncsc3c2)n1` [Example 69, 5-(benzo[d]thiazol-6-yl)-N-(6-(methylsulfonyl)pyridin-3-yl)-1-(6-methylpyridin-2-yl)-1H-pyrazole-3-carboxyamide] stands 4.9 nM.
Under `Cc1cccc(-n2nc(C(=O)Nc3ccnc(S(C)(=O)=O)c3)cc2-c2ccc3ncsc3c2)n1` [Example 70, 5-(benzo[d]thiazol-6-yl)-1-(6-methylpyridin-2-yl)-N-(2-(methylsulfonyl)pyridin-4-yl)-1H-pyrazole-3-carboxyamide] stands 4.6 nM; under `Cc1cccc(-n2nc(C(=O)Nc3ccc(F)nc3)cc2-c2ccc3ncsc3c2)n1` [Example 71, 5-(benzo[d]thiazol-6-yl)-N-(6-fluoropyridin-3-yl)-1-(6-methylpyridin-2-yl)-1H-pyrazole-3-carboxyamide], 8 nM; under `Cc1cccc(-n2nc(C(=O)Nc3ccnc(F)c3)cc2-c2ccc3ncsc3c2)n1` [Example 72, 5-(benzo[d]thiazol-6-yl)-N-(2-fluoropyridin-4-yl)-1-(6-methylpyridin-2-yl)-1H-pyrazole-3-carboxyamide], 11 nM.
Under `Cc1cccc(-n2nc(C(=O)Nc3ccc(Cl)nc3)cc2-c2ccc3ncsc3c2)n1` [Example 73, 5-(benzo[d]thiazol-6-yl)-N-(6-chloropyridin-3-yl)-1-(6-methylpyridin-2-yl)-1H-pyrazole-3-carboxyamide] stands 5.8 nM; under `Cc1cccc(-n2nc(C(=O)Nc3ccnc(Cl)c3)cc2-c2ccc3ncsc3c2)n1` [Example 74, 5-(benzo[d]thiazol-6-yl)-N-(2-chloropyridin-4-yl)-1-(6-methylpyridin-2-yl)-1H-pyrazole-3-carboxyamide], 2.3 nM.
